From ChEMBL document CHEMBL1201862, “PubChem BioAssay data set” (2004)
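Growth conditions: 96-well plates. Treatment: test compound, 48 hours, 5 concentrations. Analysis: linear interpolation between bracketing concentrations; unreached endpoints set to highest concentration. Abbreviation: GI50, concentration required for 50% inhibition of growth.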 Active and inactive are the calls of the source. Cut-off read from the data, not from the text of the source: active = GI50 up to about 1.1 µM and inactive = higher.

How the values were obtained:
Experiment in all cases: growth of human tumour cells (NCI), 48 h
HCT-15 = test system: HCT-15
COLO 205 = test system: COLO 205
UO-31 = test system: UO-31
RPMI-8226 = test system: RPMI-8226
UACC-62 = test system: UACC-62
HOP-62 = test system: HOP-62
MDA-MB-231 = test system: MDA-MB-231
HT-29 = test system: HT-29
SR = test system: SR
NCI-H226 = test system: NCI-H226
DU-145 = test system: DU-145
SF-539 = test system: SF-539
OVCAR-8 = test system: OVCAR-8
M14 = test system: M14
786-0 = test system: 786-0
OVCAR-4 = test system: OVCAR-4
SK-MEL-5 = test system: SK-MEL-5
TK-10 = test system: TK-10
Malme-3M = test system: Malme-3M

SMILES	GI50 (HCT-15)	GI50 (COLO 205)	GI50 (UO-31)	GI50 (RPMI-8226)	GI50 (UACC-62)	GI50 (HOP-62)	GI50 (MDA-MB-231)	GI50 (HT-29)	GI50 (SR)	GI50 (NCI-H226)	GI50 (DU-145)	GI50 (SF-539)	GI50 (OVCAR-8)	GI50 (M14)	GI50 (786-0)	GI50 (OVCAR-4)	GI50 (SK-MEL-5)	GI50 (TK-10)	GI50 (Malme-3M)
COc1cc([C@H]2c3cc(O)c(OC)cc3C[C@]3(O)[C@@H]2CO[C@@H]3O)ccc1O	> 100 µM	> 100 µM (inactive)	> 100 µM (inactive)	> 100 µM (inactive)	> 100 µM (inactive)	> 100 µM (inactive)	> 100 µM (inactive)	> 100 µM (inactive)	> 100 µM (inactive)	> 100 µM (inactive)	> 100 µM (inactive)	> 100 µM (inactive)	> 100 µM (inactive)	> 100 µM (inactive)	> 100 µM (inactive)	> 100 µM (inactive)	> 100 µM (inactive)	> 100 µM (inactive)	–
CCCN1C(=O)/C(=C\c2ccc(OC)c(OC)c2)S/C1=N\c1ccccc1	> 100 µM	> 100 µM (inactive)	> 100 µM (inactive)	> 100 µM (inactive)	> 100 µM (inactive)	17.6 µM (inactive)	> 100 µM (inactive)	> 100 µM (inactive)	> 100 µM (inactive)	> 100 µM (inactive)	–	24.7 µM (inactive)	> 100 µM (inactive)	> 100 µM (inactive)	17.5 µM (inactive)	> 100 µM (inactive)	> 100 µM (inactive)	31.1 µM (inactive)	> 100 µM (inactive)
O=C1CC(c2cccc(F)c2)Nc2cc3c(cc21)OCO3 (stereo unspecified)	0.0394 µM	0.0292 µM (active)	0.0422 µM (active)	< 0.01 µM (active)	0.0543 µM (active)	7.38 µM (inactive)	0.149 µM (active)	0.0237 µM (active)	–	0.027 µM (active)	0.0385 µM (active)	0.0293 µM (active)	0.0568 µM (active)	0.0267 µM (active)	0.0468 µM (active)	1.8 µM (inactive)	0.0224 µM (active)	1.13 µM (inactive)	0.0327 µM (active)
O=C(Nc1cc2c(=O)[nH]c3ccccc3c2oc1=O)c1cnccn1	> 100 µM	> 100 µM (inactive)	80.9 µM (inactive)	–	> 100 µM (inactive)	–	> 100 µM (inactive)	> 100 µM (inactive)	> 100 µM (inactive)	> 100 µM (inactive)	> 100 µM (inactive)	> 100 µM (inactive)	> 100 µM (inactive)	> 100 µM (inactive)	> 100 µM (inactive)	> 100 µM (inactive)	> 100 µM (inactive)	> 100 µM (inactive)	> 100 µM (inactive)
CCCCCCCCOC(=O)C12Oc3ccc(-c4ccc5c(c4O)C(=O)C4=C(O)CC(C)C(O)C4(C(=O)OCCCCCCCC)O5)c(O)c3C(=O)C1=C(O)CC(C)C2O (stereo unspecified)	25 µM	20.9 µM (inactive)	24.7 µM (inactive)	–	15.8 µM (inactive)	–	23.8 µM (inactive)	27.2 µM (inactive)	4.26 µM (inactive)	33.7 µM (inactive)	34.4 µM (inactive)	4.21 µM (inactive)	9.46 µM (inactive)	26.2 µM (inactive)	19.1 µM (inactive)	19.6 µM (inactive)	14.7 µM (inactive)	15.5 µM (inactive)	32.4 µM (inactive)
Nc1nc(CCl)nc(N2CCOCC2)n1	16 µM	17.9 µM (inactive)	17.3 µM (inactive)	32.4 µM (inactive)	15.8 µM (inactive)	18.2 µM (inactive)	28.9 µM (inactive)	32.7 µM (inactive)	21.3 µM (inactive)	37.4 µM (inactive)	38.4 µM (inactive)	22.8 µM (inactive)	34.8 µM (inactive)	27.1 µM (inactive)	14 µM (inactive)	17.4 µM (inactive)	20.1 µM (inactive)	62.7 µM (inactive)	–
COc1ccc(C)cc1NC(=S)C#N	27.5 µM	> 100 µM (inactive)	–	74.8 µM (inactive)	34.4 µM (inactive)	29.6 µM (inactive)	> 100 µM (inactive)	30.8 µM (inactive)	–	27.5 µM (inactive)	> 100 µM (inactive)	33.1 µM (inactive)	27.9 µM (inactive)	30.5 µM (inactive)	> 100 µM (inactive)	–	> 100 µM (inactive)	31.9 µM (inactive)	–
CN1CC2CN(Cc3ccccc3)CCN2c2cccnc21 (stereo unspecified)	28.6 µM	36.6 µM (inactive)	69.3 µM (inactive)	27.5 µM (inactive)	68.4 µM (inactive)	> 100 µM (inactive)	97.1 µM (inactive)	29.1 µM (inactive)	25.8 µM (inactive)	57.7 µM (inactive)	–	62.8 µM (inactive)	48.2 µM (inactive)	60.7 µM (inactive)	52.1 µM (inactive)	82.6 µM (inactive)	31.1 µM (inactive)	> 100 µM (inactive)	47 µM (inactive)
CC1(C)C2CCC1(C)[C@H](n1c(=O)n([C@@H]3CC4CCC3(C)C4(C)C)c(=O)n([C@@H]3CC4CCC3(C)C4(C)C)c1=O)C2	49.2 µM	–	38.7 µM (inactive)	57.9 µM (inactive)	–	44.4 µM (inactive)	45.5 µM (inactive)	56.8 µM (inactive)	71.4 µM (inactive)	27.7 µM (inactive)	55.7 µM (inactive)	17.8 µM (inactive)	49.9 µM (inactive)	> 100 µM (inactive)	28 µM (inactive)	> 100 µM (inactive)	34 µM (inactive)	42.9 µM (inactive)	–
O=P1(Oc2ccccc2)NCc2ncccc2O1 (stereo unspecified)	> 100 µM	> 100 µM (inactive)	> 100 µM (inactive)	> 100 µM (inactive)	> 100 µM (inactive)	> 100 µM (inactive)	> 100 µM (inactive)	> 100 µM (inactive)	> 100 µM (inactive)	> 100 µM (inactive)	> 100 µM (inactive)	> 100 µM (inactive)	> 100 µM (inactive)	> 100 µM (inactive)	> 100 µM (inactive)	> 100 µM (inactive)	> 100 µM (inactive)	–	–
Oc1cc(-c2cccc(C(F)(F)F)c2)nc2cc3c(cc12)OCO3	1.38 µM	8.93 µM (inactive)	8.89 µM (inactive)	1.77 µM (inactive)	1.51 µM (inactive)	1.83 µM (inactive)	1.87 µM (inactive)	13.7 µM (inactive)	0.55 µM (active)	–	–	1.04 µM (active)	2.34 µM (inactive)	1.76 µM (inactive)	2.05 µM (inactive)	–	–	> 50 µM (inactive)	0.518 µM (active)
Fc1cc(-c2ncc(Cl)cc2Cl)c2cccccc1-2	> 100 µM	> 100 µM (inactive)	> 100 µM (inactive)	–	> 100 µM (inactive)	> 100 µM (inactive)	> 100 µM (inactive)	76.2 µM (inactive)	–	> 100 µM (inactive)	> 100 µM (inactive)	> 100 µM (inactive)	> 100 µM (inactive)	82.6 µM (inactive)	> 100 µM (inactive)	–	> 100 µM (inactive)	> 100 µM (inactive)	> 100 µM (inactive)
[N-]=[N+]=Nc1c(-c2ccccc2)c(Cl)nc2ccccc12	28.4 µM	20 µM (inactive)	15.5 µM (inactive)	29.7 µM (inactive)	–	34.1 µM (inactive)	31.8 µM (inactive)	19.7 µM (inactive)	39.5 µM (inactive)	22.2 µM (inactive)	–	43.8 µM (inactive)	58.2 µM (inactive)	46 µM (inactive)	38 µM (inactive)	21.9 µM (inactive)	17.3 µM (inactive)	74.5 µM (inactive)	34.8 µM (inactive)
CCO/C=N/NC(=O)CSc1nc2ccc(I)cc2c(=O)n1Cc1ccccc1	> 100 µM	57.4 µM (inactive)	> 100 µM (inactive)	49.3 µM (inactive)	43.9 µM (inactive)	37.4 µM (inactive)	38 µM (inactive)	40.2 µM (inactive)	33.7 µM (inactive)	64.4 µM (inactive)	> 100 µM (inactive)	53.8 µM (inactive)	87.5 µM (inactive)	70.3 µM (inactive)	56 µM (inactive)	> 100 µM (inactive)	> 100 µM (inactive)	34.7 µM (inactive)	–
Cc1cccc2c1Oc1ncccc1C2NC(=O)CN(C)C (stereo unspecified)	> 10 µM	–	> 10 µM (inactive)	–	> 10 µM (inactive)	–	–	> 10 µM (inactive)	> 10 µM (inactive)	> 10 µM (inactive)	–	> 10 µM (inactive)	> 10 µM (inactive)	> 10 µM (inactive)	> 10 µM (inactive)	> 10 µM (inactive)	–	> 10 µM (inactive)	> 10 µM (inactive)
CO/N=C(\C(=O)N(C)n1cnnc1)c1csc(NC(c2ccccc2)(c2ccccc2)c2ccccc2)n1	> 10 µM	> 10 µM (inactive)	> 10 µM (inactive)	> 10 µM (inactive)	–	> 10 µM (inactive)	–	> 10 µM (inactive)	> 10 µM (inactive)	> 10 µM (inactive)	> 10 µM (inactive)	> 10 µM (inactive)	> 10 µM (inactive)	> 10 µM (inactive)	> 10 µM (inactive)	> 10 µM (inactive)	> 10 µM (inactive)	> 10 µM (inactive)	> 10 µM (inactive)
NC1(C(=O)O)CCCC1C(=O)O (stereo unspecified)	> 100 µM	> 100 µM (inactive)	> 100 µM (inactive)	> 100 µM (inactive)	> 100 µM (inactive)	> 100 µM (inactive)	> 100 µM (inactive)	> 100 µM (inactive)	> 100 µM (inactive)	–	> 100 µM (inactive)	> 100 µM (inactive)	> 100 µM (inactive)	> 100 µM (inactive)	> 100 µM (inactive)	> 100 µM (inactive)	> 100 µM (inactive)	> 100 µM (inactive)	> 100 µM (inactive)
